{
  "source": "patent US7364752B1",
  "about": "“Solid dispersion pharamaceutical formulations” (Abbott Laboratories, priority 1999, dated 2008)",
  "origin": "cited, not measured here",
  "settings": "PEG solid dispersion formulation",
  "data": [
    {"smiles": "O=C1N(Cc2ccc(CO)cc2)[C@H](Cc2ccccc2)[C@H](O)[C@@H](O)[C@@H](Cc2ccccc2)N1Cc1ccc(CO)cc1", "note": "[DMP 323]", "values": [
      {"measurement": "bioavailability", "value": "unable to improve the bioavailability"}
    ]}
  ]
}
